The source of these data is US9695178B2, “6-(2-pyridyl)-7,8-dihydro-5H-pyrido[4,3-D]pyrimidine analogs as hedgehog pathway signaling inhibitors and therapeutic applications thereof” (Suzhou Yunxuan Yiyao Keji Youxian Gongsi, priority 2013, dated 2017).

The target in the assay is Smo (Homo sapiens, UniProt Q99835). The assay can be described thus: Bodipy-Cyclopamine Binding Assay (confirmation assay), Hek293-SMO cells.
Chain of Smo (Q99835 28-787): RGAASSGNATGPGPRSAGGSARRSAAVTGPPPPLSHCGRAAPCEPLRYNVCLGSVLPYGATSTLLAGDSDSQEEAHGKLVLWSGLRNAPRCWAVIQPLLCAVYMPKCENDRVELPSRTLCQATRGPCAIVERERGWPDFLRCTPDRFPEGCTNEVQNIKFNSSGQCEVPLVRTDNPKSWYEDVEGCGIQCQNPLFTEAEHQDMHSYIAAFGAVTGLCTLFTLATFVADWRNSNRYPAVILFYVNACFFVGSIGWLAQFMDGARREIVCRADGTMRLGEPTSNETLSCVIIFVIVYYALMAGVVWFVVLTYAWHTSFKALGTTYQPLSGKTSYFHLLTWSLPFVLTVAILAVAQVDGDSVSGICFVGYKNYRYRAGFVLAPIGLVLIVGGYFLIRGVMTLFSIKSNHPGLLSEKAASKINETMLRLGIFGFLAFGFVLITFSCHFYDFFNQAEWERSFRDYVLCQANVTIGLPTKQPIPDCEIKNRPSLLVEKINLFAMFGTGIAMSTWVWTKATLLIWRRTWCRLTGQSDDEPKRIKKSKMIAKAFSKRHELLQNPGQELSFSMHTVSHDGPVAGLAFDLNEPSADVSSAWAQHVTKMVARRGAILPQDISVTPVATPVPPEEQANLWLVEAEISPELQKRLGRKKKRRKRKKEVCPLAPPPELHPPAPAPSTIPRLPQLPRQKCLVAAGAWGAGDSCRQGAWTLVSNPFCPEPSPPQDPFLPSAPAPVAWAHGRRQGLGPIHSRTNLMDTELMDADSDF
Experimental: The confirmation assay is based on Bodipy-Cyclopamine Binding Assay:
Bodipy-Cyclopamine binding assay is a fluorescence based assay used to analysis the binding of Smo agonists. […] Bodipy-Cyclopamine was purchased from Toronto Research Chemicals and dissolved in methanol.
Hek293-SMO cells were plated in 96-well-plate (3340, Corning), the final cell concentration is 15,000 cells/well in 100 ul 1% serum-containing DMEM. The plates were incubated in 37 degree for additional 48 hours.
Hek293-SMO plate were washed with PBS and fixed with 4% paraformaldehyde (PFA)/PBS for 20 min at room temperature. After removing the PFA buffer, the cells were incubated with DAPI/PBS (5 ug/mL) for 10 min and followed by twice wash with PBS. After wash, cells were incubated for 2 h at room temperature in binding buffer (HBSS W/O Ca^2+ and Mg^2+) containing 100 nM bodipy-cyclopamine and compounds over a range of concentrations from 0-10 μM for competitive binding. After incubation, the cells were washed twice with the PBS. The fluorescence images were automatically captured and analyzed by a high content fluorescence imaging system (Arrayscan VTI, Thermo). GDC-0449 was used as reference compound to normalize the data. IC50 values were calculated with GraphPad Prism software using the sigmoidal dose-response function. The Ki was calculated following the Cheng-Prusoff equation, as Ki=IC50/[1+[bodipy-cyclopamine]/Kd)].
In general, IC50 refers to the concentration at which inhibition is half-maximal. A higher IC50 goes with lower potency. Take `Cc1cnc(-c2cc(N3CCc4nc(NCC5CC5)sc4C3)ncc2Cl)c(C)c1` [Compound A-31, 5-(5′-chloro-3,5-dimethyl-2,4′-bipyridin-2′-yl)-N-(cyclopro-pylmeth-yl)-4,5,6,7-tetrahydro-thiazolo-[5,4-c]pyridin-2-amine]: the IC50 came out at 54.8 nM.
The value for `Cc1cnc(-c2cc(N3CCc4nc(N5CCC(O)CC5)sc4C3)ncc2Cl)c(C)c1` [Compound A-32, 1-(5-(5′-chloro-3,5-dimethyl-2,4′-bipyridin-2′-yl)-4,5,6,7-tetrahydro-thiazolo-[5,4-c]pyridin-2-yl)piperidin-4-ol] was 86.7 nM; that for `Cc1cnc(-c2cc(N3CCc4nc(N5CC(C)OC(C)C5)sc4C3)ncc2Cl)c(C)c1` (centres unmarked) [Compound A-33, 4-(5-(5′-chloro-3,5-dimethyl-2,4′-bipyridin-2′-yl)-4,5,6,7-tetrahydro-thiazolo-[5,4-c]pyridin-2-yl)-2,6-dimethyl-morpholine] was 447 nM.
The same measure for `Cc1cnc(-c2cc(N3CCc4nc(N5CCCC5)sc4C3)ncc2Cl)c(C)c1` [Compound A-34, 5-(5′-chloro-3,5-dimethyl-2,4′-bipyridin-2′-yl)-2-(pyrrolidin-1-yl)-4,5,6,7-tetrahydro-thiazolo-[5,4-c]pyridine]: 371 nM; for `CCNc1nc2c(s1)CN(c1cc(-c3ncc(C)cc3C)c(Cl)cn1)CC2` [Compound A-35, 5-(5′-chloro-3,5-dimethyl-2,4′-bipyridin-2′-yl)-N-ethyl-4,5,6,7-tetrahydro-thiazolo-[5,4-c]pyridin-2-amine]: 260 nM.
The same measure for `Cc1cnc(-c2cc(N3CCc4nc(-n5cccn5)sc4C3)ncc2Cl)c(C)c1` [Compound A-36, 5-(5′-chloro-3,5-dimethyl-2,4′-bipyridin-2′-yl)-2-(1H-pyrazol-1-yl)-4,5,6,7-tetrahydro-thiazolo-[5,4-c]pyridine]: 565 nM.
`CCOC(=O)Nc1nc2c(s1)CN(c1cc(-c3ncc(C)cc3C)c(Cl)cn1)CC2` [Compound A-37, ethyl 5-(5′-chloro-3,5-dimethyl-2,4′-bipyridin-2′-yl)-4,5,6,7-tetrahydro-thiazolo-[5,4-c]pyridin-2-ylcarbamate] registered an IC50 of 487 nM.
Take `Cc1cnc(-c2cc(N3CCc4nc(NC(=O)C(F)(F)F)sc4C3)ncc2Cl)c(C)c1` [Compound A-38, N-(5-(5′-chloro-3,5-dimethyl-2,4′-bipyridin-2′-yl)-4,5,6,7-tetrahydro-thiazolo-[5,4-c]pyridin-2-yl)-2,2,2-trifluoro-acetamide]: the IC50 is above 1000 nM.
Consider `Cc1cnc(-c2cc(N3CCc4nc(NC(=O)CCN5CCOCC5)sc4C3)ncc2Cl)c(C)c1` [Compound A-39, N-(5-(5′-chloro-3,5-dimethyl-2,4′-bipyridin-2′-yl)-4,5,6,7-tetrahydro-thiazolo-[5,4-c]pyridin-2-yl)-3-morpholino-propan-amide], for which the concentration for half-maximal inhibition (IC50) amounted to 134 nM. In other words, the sub-micromolar range.
The value for `Cc1cnc(-c2cc(N3CCc4nc(NC(=O)CCN5CCCCC5)sc4C3)ncc2Cl)c(C)c1` [Compound A-40, N-(5-(5′-chloro-3,5-dimethyl-2,4′-bipyridin-2′-yl)-4,5,6,7-tetrahydro-thiazolo-[5,4-c]pyridin-2-yl)-3-(piperidin-1-yl)propanamide] was 151 nM; that for `Cc1cnc(-c2cc(N3CCc4nc(NC(=O)CCN(C)C)sc4C3)ncc2Cl)c(C)c1` [Compound A-41, N-(5-(5′-chloro-3,5-dimethyl-2,4′-bipyridin-2′-yl)-4,5,6,7-tetrahydro-thiazolo-[5,4-c]pyridin-2-yl)-3-(dimethyl-amino)-propanamide] was 173 nM; that for `CCNC(=O)Nc1nc2c(s1)CN(c1cc(-c3ncc(C)cc3C)c(Cl)cn1)CC2` [Compound A-42, 1-(5-(5′-chloro-3,5-dimethyl-2,4′-bipyridin-2′-yl)-4,5,6,7-tetrahydro-thiazolo-[5,4-c]pyridin-2-yl)-3-ethylurea] was 190 nM.
The same measure for `Cc1cnc(-c2cc(N3CCc4nc(NC(=O)NC(C)C)sc4C3)ncc2Cl)c(C)c1` [Compound A-43, 1-(5-(5′-chloro-3,5-dimethyl-2,4′-bipyridin-2′-yl)-4,5,6,7-tetrahydro-thiazolo-[5,4-c]pyridin-2-yl)-3-isopropylurea]: 201 nM; for `C=CC(=O)Nc1nc2c(s1)CN(c1cc(-c3ncc(C)cc3C)c(Cl)cn1)CC2` [Compound A-44, N-(5-(5′-chloro-3,5-dimethyl-2,4′-bipyridin-2′-yl)-4,5,6,7-tetrahydro-thiazolo-[5,4-c]pyridin-2-yl)acrylamide]: above 1000 nM; for `Cc1cnc(-c2cc(N3CCc4nc(NS(C)(=O)=O)sc4C3)ncc2Cl)c(C)c1` [Compound A-45, N-(5-(5′-chloro-3,5-dimethyl-2,4′-bipyridin-2′-yl)-4,5,6,7-tetrahydro-thiazolo-[5,4-c]pyridin-2-yl)methane-sulfon-amide]: above 1000 nM.
The same measure for `Cc1cnc(-c2cc(N3CCc4nc(OC5CCC5)sc4C3)ncc2Cl)c(C)c1` [Compound A-47, 5-(5′-chloro-3,5-dimethyl-2,4′-bipyridin-2′-yl)-2-cyclobutoxy-4,5,6,7-tetrahydro-thiazolo-[5,4-c]pyridine]: 88.3 nM; for `Cc1cnc(-c2cc(N3CCc4nc(Nc5ccccc5)sc4C3)ncc2Cl)c(C)c1` [Compound A-48, 5-(5′-chloro-3,5-dimethyl-2,4′-bipyridin-2′-yl)-N-phenyl-4,5,6,7-tetrahydro-thiazolo-[5,4-c]pyridin-2-amine]: 330 nM; for `CNc1ncc2c(n1)CCN(c1cc(-c3ncc(C)cc3C)c(Cl)cn1)C2` [Compound A-50, 6-(5′-chloro-3,5-dimethyl-2,4′-bipyridin-2′-yl)-N-methyl-5,6,7,8-tetrahydro-pyrido-[4,3-d]pyrimidin-2-amine]: 232 nM.
As to `CCNc1ncc2c(n1)CCN(c1cc(-c3ncc(C)cc3C)c(Cl)cn1)C2` [Compound A-51, 6-(5′-chloro-3,5-dimethyl-2,4′-bipyridin-2′-yl)-N-ethyl-5,6,7,8-tetrahydro-pyrido-[4,3-d]pyrimidin-2-amine], the IC50 was 16.8 nM.
`Cc1cnc(-c2cc(N3CCc4nc(NC5CC5)ncc4C3)ncc2Cl)c(C)c1` [Compound A-52, 6-(5′-chloro-3,5-dimethyl-2,4′-bipyridin-2′-yl)-N-cyclopropyl-5,6,7,8-tetrahydropyrido[4,3-d]pyrimidin-2-amine] had an IC50 of 5.4 nM.
The value for `Cc1cnc(-c2cc(N3CCc4nc(N5CCCC5)ncc4C3)ncc2Cl)c(C)c1` [Compound A-53, 6-(5′-chloro-3,5-dimethyl-2,4′-bipyridin-2′-yl)-2-(pyrrolidin-1-yl)-5,6,7,8-tetrahydro-pyrido-[4,3-d]pyrimidine] was 24.9 nM; that for `Cc1cnc(-c2cc(N3CCc4nc(N(C)CCO)ncc4C3)ncc2Cl)c(C)c1` [Compound A-54, 2-((6-(5′-chloro-3,5-dimethyl-2,4′-bipyridin-2′-yl)-5,6,7,8-tetrahydro-pyrido-[4,3-d]pyrimidin-2-yl)(methyl)-amino)ethanol] was 22.9 nM; that for `Cc1cnc(-c2cc(N3CCc4nc(N5CCC(O)CC5)ncc4C3)ncc2Cl)c(C)c1` [Compound A-55, 1-(6-(5′-chloro-3,5-dimethyl-2,4′-bipyridin-2′-yl)-5,6,7,8-tetrahydro-pyrido-[4,3-d]pyrimidin-2-yl)piperidin-4-ol] was 5.1 nM.
In turn, `Cc1cnc(-c2cc(N3CCc4nc(N5CCOCC5)ncc4C3)ncc2Cl)c(C)c1` [Compound A-56, 4-(6-(5′-chloro-3,5-dimethyl-2,4′-bipyridin-2′-yl)-5,6,7,8-tetrahydro-pyrido-[4,3-d]pyrimidin-2-yl)morpholine] displayed an IC50 of 48.7 nM.
As for `Cc1cnc(-c2cc(N3CCc4nc(N5CC(C)NC(C)C5)ncc4C3)ncc2Cl)c(C)c1` (centres unmarked) [Compound A-57, 6-(5′-chloro-3,5-dimethyl-2,4′-bipyridin-2′-yl)-2-(3,5-dimethyl-piperazin-1-yl)-5,6,7,8-tetrahydro-pyrido-[4,3-d]pyrimidine], the IC50 came out at 11.1 nM.
In turn, `Cc1cnc(-c2cc(N3CCc4nc(N(C)S(C)(=O)=O)ncc4C3)ncc2Cl)c(C)c1` [Compound A-58, N-(6-(5′-chloro-3,5-dimethyl-2,4′-bipyridin-2′-yl)-5,6,7,8-tetrahydro-pyrido-[4,3-d]pyrim-idin-2-yl)-N-methylmethane-sulfonamide] returned an IC50 of 59.8 nM. This IC50 is about 5.4-fold higher than that of the molecule before.
`Cc1cnc(-c2cc(N3CCc4nc(-n5cccn5)ncc4C3)ncc2Cl)c(C)c1` [Compound A-59, 6-(5′-chloro-3,5-dimethyl-2,4′-bipyridin-2′-yl)-2-(1H-pyrazol-1-yl)-5,6,7,8-tetrahydro-pyrido-[4,3-d]pyrim-idine] came in with an IC50 of 48.8 nM.
Turning to `Cc1cnc(-c2cc(N3CCc4nc(NC(C)C)ncc4C3)ncc2Cl)c(C)c1` [Compound A-60, 6-(5′-chloro-3,5-dimethyl-2,4′-bipyridin-2′-yl)-N-isopropyl-5,6,7,8-tetrahydro-pyrido-[4,3-d]pyrimidin-2-amine], the IC50 was 18 nM.
The value for `Cc1cnc(-c2cc(N3CCc4nc(NC(C)(C)C)ncc4C3)ncc2Cl)c(C)c1` [Compound A-61, N-tert-butyl-6-(5′-chloro-3,5-dimethyl-2,4′-bipyridin-2′-yl)-5,6,7,8-tetrahydro-pyrido-[4,3-d]pyrimidin-2-amine] was 14.1 nM; that for `Cc1cnc(-c2cc(N3CCc4nc(Nc5ccccc5)ncc4C3)ncc2Cl)c(C)c1` [Compound A-62, 6-(5′-chloro-3,5-dimethyl-2,4′-bipyridin-2′-yl)-N-phenyl-5,6,7,8-tetrahydro-pyrido-[4,3-d]pyrimidin-2-amine] was 51.1 nM; that for `CSc1ncc2c(n1)CCN(c1cc(-c3ncc(C)cc3C)c(Cl)cn1)C2` [Compound A-63, 6-(5′-chloro-3,5-dimethyl-2,4′-bipyridin-2′-yl)-2-(methylthio)-5,6,7,8-tetrahydro-pyrido-[4,3-d]pyrimidine] was 87.6 nM.
The same measure for `Cc1cnc(-c2cc(N3CCc4nc(S(C)(=O)=O)ncc4C3)ncc2Cl)c(C)c1` [Compound A-64, 6-(5′-chloro-3,5-dimethyl-2,4′-bipyridin-2′-yl)-2-(methyl-sulfonyl)-5,6,7,8-tetrahydro-pyrido-[4,3-d]pyrim-idine]: 500 nM.
